The source of these data is patent US12180226B2, “Spirotricycle RIPK1 inhibitors and methods of uses thereof” (Merck Sharp & Dohme LLC, priority 2021, dated 2024).

The assay has as its target RIPK1 (recombinant GST-RIPK1 kinase domain, residues 1-327) (Homo sapiens (Human), UniProt Q13546). The assay is described as follows: RIPK1-ADP-Glo Enzymatic Assay. The class given is biochemical. The following applies: ADP-Glo; 25 nM GST-RIPK1, 300 μM ATP; assay lower limit ~25 nM; read-out: RIPK1 V0 Ec50. On the procedure: RIPK1-ADP-Glo Enzymatic Assay
The enzymatic activity of RIPK1 is measured using an assay derived from ADP-Glo kit (TMPromega), which provides a luminescent-based ADP detection system. Specifically, the ADP generated by RIPK1 kinase is proportionally detected as luminescent signals in a homogenous fashion. In this context, the assessment of the inhibitory effect of small molecules (EC50) is measured by the effectiveness of the compounds to inhibit the ATP to ADP conversion by RIPK1.
In this assay, the potency (EC50) of each compound was determined from a ten-point (1:3 serial dilution; top compound concentration of 100000 nM) titration curve using the following outlined procedure. The assay bottom or lower limit of confidence is ˜25 nM. To each well of a white ProxiPlus 384 well-plate, 30 nL of compound (1% DMSO in final assay volume of 3 μL) was dispensed, followed by the addition of 2 μL of 1×assay buffer (25 mM Hepes 7.3, 20 mM MgCl2, 50 mM NaCl, 1 mM DTT, 0.005% Tween20, and 0.02% BSA) containing 37.5 nM of GST-RIPK1 (recombinant GST-RIPK1 kinase domain (residues 1-327) enzyme produced from baculovirus-transfected Sf21 cells: MW=62 kDa). Plates were placed in an ambient temperature humidified chamber for a 30-minute pre-incubation with compound. Subsequently, each reaction was initiated by the addition of 1 μL 1×assay buffer containing 900 μM ATP and […] dephosphorylated-MBP substrate. The final reaction in each well of 3 μL consists of 25 nM of GST-RIPK1, 300 μM ATP, and 3 μM dephosphorylated-MBP. Kinase reactions were allowed to proceed for 150 minutes prior to adding ADP-Glo reagents per Promega's outlined kit protocol. Dose-response curves were generated by plotting percent effect (% product conversion; Y-axis) vs. Log10 compound concentrations (X-axis). EC50 values were calculated using a non-linear regression, four-parameters sigmoidal dose-response model.
In general terms: In ADP-Glo the light output rises with the ADP produced.

Counter-ions that a name gives are not always drawn.

Chain of RIPK1 (recombinant GST-RIPK1 kinase domain, residues 1-327) (Q13546 1-327): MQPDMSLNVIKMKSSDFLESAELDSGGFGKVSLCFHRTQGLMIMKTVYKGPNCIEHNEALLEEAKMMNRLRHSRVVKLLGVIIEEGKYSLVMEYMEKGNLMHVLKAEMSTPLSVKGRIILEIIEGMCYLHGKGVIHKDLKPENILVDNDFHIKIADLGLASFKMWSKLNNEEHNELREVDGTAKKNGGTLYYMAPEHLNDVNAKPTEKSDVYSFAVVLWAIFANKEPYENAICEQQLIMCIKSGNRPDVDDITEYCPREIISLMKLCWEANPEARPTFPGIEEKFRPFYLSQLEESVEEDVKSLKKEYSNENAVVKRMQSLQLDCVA

In general, EC50 refers to the concentration at which the effect is half-maximal. As for `O=C1N2[C@H](CC[C@@H]2c2ccccc2)SC12CCN(c1ccnc3ccnn13)CC2` [Example 4.115, (5′R,7a′S)-5′-phenyl-1-(pyrazolo[1,5-a]pyrimidin-7-yl)tetrahydro-3′H-spiro[piperidine-4,2′-pyrrolo[2,1-b]thiazol]-3′-one], the EC50 was determined as 180 nM.
For `O=C(c1ccccc1Cl)N1CCC2(CC1)O[C@@H]1CC[C@@H](c3cc(F)cc(F)c3)N1C2=O` [Example 6.78, (5′S,7a′R)-1-(2-chloro-benzene-1-carbonyl)-5′-(3,5-difluorophen-yl)tetrahydro-3′H-spiro[piperidine-4,2′-pyrrolo[2,1-b][1,3]-oxazol]-3′-one], the EC50 was found to be 36.9 nM.
Take `N#Cc1cc(N2CCC3(O[C@@H]4CC[C@@H](c5ccccc5)N4C3=O)C(F)C2)ncn1` (single isomer, unassigned) [Example 4.94, 6-((3[R or S],4[S or R], 5′S,7a′R)-3-fluoro-3′-oxo-5′-phenyltetrahydro-3′H-spiro[piperidine-4,2′-pyrrolo[2,1-b]oxazol]-1-yl)pyrimidine-4-carbonitrile]: the EC50 was determined as 154 nM.
As to `O=C1N2C(CCC2c2cc(F)cc(F)c2)SC12CCN(c1ccnc3c(F)cnn13)CC2` (stereo not drawn) [Example 4.110, 5′-(3,5-difluorophenyl)-1-(3-fluoropyrazolo[1,5-a]pyrimidin-7-yl)tetrahydro-3′H-spiro[piperidine-4,2′-pyrrolo[2,1-b]thiazol]-3′-one], the EC50 was less than 25 nM.
To `C#Cc1cccc(C(=O)N2CCC3(CC2)O[C@@H]2CC[C@@H](c4ccccc4)N2C3=O)c1` [Example 6.141, (5′S,7a′R)-1-(3-ethynylbenzene-1-carbonyl)-5′-phenyl-tetrahydro-3′H-spiro [piperidine-4,2′-pyrrolo[2,1-b][1,3]oxazol]-3′-one] belongs less than 25 nM; to `O=C1N2[C@@H](CC[C@H]2c2ccccc2)OC12CCN(c1ncc(-c3cscn3)cn1)CC2` [Example 21.13, (5′S,7a′R)-5′-phenyl-1-[5-(1,3-thiazol-4-yl)pyrimidin-2-yl]tetrahydro-3′H-spiro[piperidine-4,2′-pyrrolo[2,1-b][1,3]oxazol]-3′-one], 40.3 nM; to `O=C(c1ccc2nscc2c1)N1CCC2(CC1)O[C@@H]1CC[C@@H](c3cc(F)cc(F)c3)N1C2=O` [Example 6.42, (5′S,7a′R)-1-(2,1-benzothiazole-5-carbonyl)-5′-(3,5-difluorophenyl)tetra-hydro-3′H-spiro [piperidine-4,2′-pyrrolo[2,1-b][1,3]oxazol]-3′-one], less than 25 nM.
For `Cc1cc(N2CCC3(CC2)O[C@@H]2CC[C@@H](c4ccccc4)N2C3=O)ncc1[N+](=O)[O-]` [Example 4.207, (5′S,7a′R)-1-(4-methyl-5-nitropyridin-2-yl)-5′-phenyltetrahydro-3′H-spiro[piperidine-4,2′-pyrrolo[2,1-b] [1,3]oxazol]-3′-one], the EC50 is less than 25 nM.
With `O=C1N2[C@@H](CC[C@H]2c2ccccc2)OC12CCN(c1ccc(C(F)F)c3ncnn13)CC2` [Example 4.269, (5′S,7a′R)-1-[8-(difluoromethyl)[1,2,4]triazolo[1,5-a]pyridin-5-yl]-5′-phenyltetrahydro-3′H-spiro[piperidine-4,2′-pyrrolo[2,1-b] [1,3]oxazol]-3′-one], the EC50 is less than 25 nM.
Take `O=C(c1ccccc1)N1CCC2(CC1)S[C@@H]1CC[C@@H](c3ccccc3)N1C2=O` [Example 1.23, (5′S,7a′R)-1-(benzenecarbonyl)-5′-phenyltetrahydro-3′H-spiro[piperidine-4,2′-pyrrolo[2,1-b] [1,3]thiazol]-3′-one]: the EC50 came out at 26.1 nM.
Consider `N#Cc1ccc(N2CCC3(CC2)O[C@@H]2CC[C@@H](c4ccccc4)N2C3=O)n2ncnc12` [Example 4.261, 5-[(5′S,7a′R)-3′-oxo-5′-phenyltetrahydro-1H,3′H-spiro[piperidine-4,2′-pyrrolo[2,1-b] [1,3]oxazol]-1-yl][1,2,4]triazolo[1,5-a] pyridine-8-carbonitrile], for which the EC50 was less than 25 nM.
On to `N#Cc1ccc(C(=O)N2CCC3(CC2)O[C@@H]2CC[C@@H](c4cc(F)cc(F)c4)N2C3=O)c(F)c1` [Example 5.20, 4-((5′S,7a′R)-5′-(3,5-difluorophenyl)-3′-oxo-tetrahydro-3′H-spiro [piperidine-4,2′-pyrrolo-[2,1-b]oxazole]-1-carbon-yl)-3-fluorobenzonitrile], for which the EC50 was 212 nM.
On to `Cc1ccc(F)c(C(=O)N2CCC3(CC2)O[C@@H]2CC[C@@H](c4cc(F)cc(F)c4)N2C3=O)n1` [Example 6.104, (5′S,7a′R)-5′-(3,5-difluorophenyl)-1-(3-fluoro-6-methylpyri-dine-2-carbonyl)tetra-hydro-3′H-spiro[piperi-dine-4,2′-pyrrolo[2,1-b][1,3]oxazol]-3′-one], for which the half-maximal effective concentration (EC50) came to 32.2 nM.
As for `O=C1N2[C@@H](CC[C@H]2c2ccccc2)OC12CCN(c1ccnc3ccnn13)CC2` [Example 4.28, (5′S,7a′R)-5′-phenyl-1-(pyrazolo[1,5-a]pyrimidin-7-yl)tetrahydro-3′H-spiro[piperidine-4,2′-pyrrolo[2,1-b] [1,3]oxazol]-3′-one], the EC50 is less than 25 nM.
For `O=C1N2[C@@H](CC[C@H]2c2cc(F)cc(F)c2)OC12CCN(c1ccc(-c3ncco3)c3ncnn13)CC2` [Example 21.1, (5′S,7a′R)-5′-(3,5-Difluorophenyl)-1-(8-(oxazol-2-yl)-[1,2,4]triazolo[1,5-a]pyridin-5-yl)tetrahydro-3′H-spiro[piperidine-4,2′-pyrrolo[2,1-b]oxazol]-3′-one], the concentration for a half-maximal effect (EC50) is less than 25 nM.
Turning to `CC1CN(c2ccnc3ccnn23)CCC12O[C@@H]1CC[C@@H](c3ccccc3)N1C2=O` (stereo partly drawn) [Example 4.246, (4R,5′S,7a′R)-3-methyl-5′-phenyl-1-(pyrazolo[1,5-a]pyrimidin-7-yl)tetrahydro-3′H-spiro[piperidine-4,2′-pyrrolo[2,1-b] [1,3]oxazol]-3′-one], the EC50 was less than 25 nM.
`Cc1cc(F)c(C(=O)N2CCC3(CC2)O[C@@H]2CC[C@@H](c4cc(F)cc(F)c4)N2C3=O)cc1F` [Example 5.6, (5′S,7a′R)-1-(2,5-difluoro-4-methylbenzene-1-carbonyl)-5′-(3,5-difluoro-phenyl)tetrahydro-3′H-spiro[piperidine-4,2′-pyrrolo[2,1-b][1,3]oxazol]-3′-one]: the EC50 was less than 25 nM.
Regarding `CCc1ccc(N2CCC3(CC2)O[C@@H]2CC[C@@H](c4ccccc4)N2C3=O)n2ncnc12` [Example 4.221, (5′S,7a′R)-1-(8-ethyl[1,2,4]triazolo[1,5-a]pyridin-5-yl)-5′-phenyltetrahydro-3′H-spiro[piperidine-4,2′-pyrrolo[2,1-b] [1,3]oxazol]-3′-one], the EC50 was less than 25 nM.
To `O=C1N2[C@@H](CC[C@H]2c2ccccc2)OC12CCN(c1cc(-c3ccc(F)cc3)c([N+](=O)[O-])cn1)CC2` [Example 4.208, (5′S,7a′R)-1-[4-(4-fluorophenyl)-5-nitropyridin-2-yl]-5′-phenyltetrahydro-3′H-spiro[piperidine-4,2′-pyrrolo[2,1-b] [1,3]oxazol]-3′-one] belongs 56 nM; to `O=C1N2[C@@H](CC[C@H]2c2cc(F)cc(F)c2)OC12CCN(c1ccnc(C(F)F)n1)CC2` [Example 4.9, (5′S,7a′R)-1-[2-(difluoromethyl)pyrimidin-4-yl]-5′-(3,5-difluorophenyl)tetrahydro-3′H-spiro[piperidine-4,2′-pyrrolo[2,1-b] [1,3]oxazol]-3′-one], less than 25 nM; to `O=C1N2[C@@H](CC[C@H]2c2ccccc2)OC12CN(c1ccnc3c(F)cnn13)C2` [Example 4.96, (5′S,7a′R)-1-(3-fluoropyrazolo[1,5-a]pyrimidin-7-yl)-5′-phenyltetrahydro-3′H-spiro[azetidine-3,2′-pyrrolo[2,1-b]oxazol]-3′-one, TFA salt], less than 25 nM.
For `N#Cc1ccc(N2CCC3(CC2)C[C@@H]2OC[C@@H](c4ccccc4)N2C3=O)c(F)c1` [Example 11.3, 3-fluoro-4-[(3′R,7a′S)-5′-oxo-3′-phenyltetrahydro-1H,5′H-spiro[piperidine-4,6′-pyrrolo[2,1-b][1,3]oxazol]-1-yl]benzonitrile], the EC50 was determined as 66.9 nM.
Turning to `O=C(c1ccccc1)N1CCC2(CC1)O[C@@H]1CC[C@@H](c3cc(F)cc(F)c3)N1C2=O` [Example 1.1, (5′S,7a′R)-1-Benzoyl-5′-(3,5-difluorophenyl)tetrahydro-3′H-spiro[piperidine-4,2′-pyrrolo[2,1-b]oxazol]-3′-one], the EC50 was less than 25 nM.
On to `Cn1ccc(C(=O)N2CCC3(CC2)O[C@@H]2CC[C@@H](c4cc(F)cc(F)c4)N2C3=O)c1` [Example 5.47, (5′S,7a′R)-5′-(3,5-difluoro-phenyl)-1-(1-methyl-1H-pyrrole-3-carbonyl)tetra-hydro-3′H-spiro[piperidine-4,2′-pyrrolo[2,1-b]oxazol]-3′-one], for which the EC50 turned out to be 26.9 nM.
